According to US9198902B2, “1,4-dihydropyridine-3,5-dicarboxylate derivatives and preparation and use thereof” (Xuanzhu Pharma Co., Ltd., priority 2011, dated 2015):
Where a name gives a salt, the structure may show the parent alone.

Assays:
[1] = tested on: T-type calcium ion channels; test: T-type calcium ion channel inhibition, whole cell patch-clamp (electrophysiological method); format: cell-based; details: cerebral cortex nerve cells of suckling mice, room temperature
Description: (§1) 2. Test for L- and T-Type Calcium Ion Channel Inhibitors
(§2) This experiment was assigned to HD Biosciences Corporation (Shanghai) and conducted with an electrophysiological method.
It was done with reference to the method as disclosed by Jung-Ha Lee, et. al., “Identification of T-Type α1H Ca^2+ Channels (Cav3.2) in Major Pelvic Ganglion Neurons”.
(§3) Test samples were weighed accurately and diluted in a 3-fold stepwise dilution so that the final concentrations were as follows:
T-type test: Cerebral cortex nerve cells were separated from suckling mice, and used in the experiment after 7 days of cultivation. The ionic current of a single cell was recorded by applying the whole cell patch-clamp technique at room temperature, wherein the clamp current was −90 mV, and the pulse interval was 10 s. The inward current (the activiation was started from −20 mV) is the T-type calcium current (ICa,T).
(§4) The electrode inner liquid (mM): CsCl 120, TEA-Cl 20, CaCl2 1, EGTA-CsOH 11, Hepes 10, Mg-ATP 5, pH7.3;

Human Cav3.2 = Human Cav3.2 (Homo sapiens, UniProt O95180); test: T-type calcium ion channel inhibition, FLIPR method; format: cell-based; details: Human Cav3.2 in stable HEK-293 cells, FLIPR Calcium 4 No-Wash kit
Experimental: T-type tests for Compound 19 and Compound 20 were assigned to Chan Test Corporation, and conducted according to the FLIPR experimental procedure as follows.
It was done with reference to the method disclosed on page 48 of WO 2009/056934 A1.
Samples were weighed accurately and diluted in a 3-fold stepwise dilution so that the final concentrations were as follows: 100 μM, 30 μM, 10 μM, 3 μM, 1 μM, 0.3 μM, 0.1 μM, 0.03 μM, 0.01 μM, 0.003 μM.
T-type test: Human Cav3.2 was cloned in stable HEK-293 cells, and then the operation was conducted with FLIPR Calcium 4 No-Wash kit. The cell medium was removed. To an HEPES solution free of calcium ion was added 20 μL dye to dye for 30 minutes at a temperature of 37° C. This buffer free of calcium ion included NaCl, 137 mM; KCl, 0.5 mM; MgCl2 mM, 1 mM; HEPES, 10 mM; glucose, 10 mM. The pH value was adjusted to 7.4 with NaOH. After 30 minutes, the buffer was placed at room temperature for 30 minutes. Then 5 μL of compound to be tested, solvent or blank control were added. The compound was formulated with a buffer containing calcium ion, said buffer including KCl, 135 mM; CaCl2, 10.8 mM; MgCl2, 1 mM; HEPES, 10 mM; glucose, 10 mM. The collected fluorescence values were analyzed and the inhibition ratios were calculated.

[2] = target: L-type calcium ion channels (Cavia porcellus, UniProt O35505); test: L-type calcium ion channel inhibition, whole cell patch-clamp (electrophysiological method); format: cell-based; details: left ventricle muscle cells of guinea pigs, room temperature
Description: as §1, §2
It was done with reference to the method as disclosed by Jung-Ha Lee, et. al., “Identification of T-Type α1H Ca^2+ Channels (Cav3.2) in Major Pelvic Ganglion Neurons”. J Neurophysiol 87:2844-2850, 2002.
as §3
L-type test: Left ventricle muscle cells were separated from guinea pigs. The cells were used in the experiment in eight hours. The ionic current of a single cell was recorded by applying the whole cell patch-clamp technique at room temperature, wherein the clamp current was −80 mV, and the pulse interval was 10 s. The inward current (the activiation was started from 0 mV) is the L-type calcium current (ICa,L).
as §4
The electrode outer liquid (mM): NaCl 135, CsCl 5.4, CaCl2 1.8, MgCl2 1, Hepes 5, glucose 10, pH7.4.

SHRs = test: In vivo hypotensive activity in SHRs, DSI implant-type remote blood pressure measurement; parameters: species or system rats; details: male SHRs, 10 mg/kg po, monitored 24 hours
Experimental: The in vivo hypotensive activity assay was conducted according to DSI experimental procedure with reference to page 56 of WO 2009/056934 A1. The agents to be tested, lercanidipine, barnidipine, amlodipine, azelnidipine, efonidipine and manidipine, were accurately weighed. Each agent was dissolved in DMSO. To the resulting solution was added 50% of the corresponding volume of PEG400 so that the final concentration of each agent was 1 mg/ml, and the final concentration of DMSO was 3%. […] Each compound was dissolved in DMSO. […] The compound to be tested, Compound 15, was accurately weighed. This compound was dissolved in DMSO. […] The compound to be tested, Compound 16 (optical activity)+108.34° and Compound 17 (optical activity optical activity)+36.4°, were accurately weighed. […] The test for hypotensive effect: Male SHRs were subjected to an abdominal aorta implantation using an implant, and used in the test after 7-10 days of recovery. The administration was an intragastric administration. One hour before the administration, the measured blood pressure was used as the pre-administration basic blood pressure value. After the administration, SHRs, allowed free access to the diet, were continuously monitored with a DSI implant-type blood pressure remote measurement system for 24 hours.

[3] = tested on: SHRs (spontaneous hypertensive rats); test: In vivo hypotensive activity in SHRs, tail-pinch method; details: male SHRs, 10 mg/kg po; for Max ΔMAP (mmHg ± SEM): measured 1-24 h after administration
Experimental: The in vivo hypotensive activity assay was conducted according to the tail-pinch method with reference to Folia pharmacol. Japon. 97, 115-126 (1991).
The agents to be tested, lercanidipine, barnidipine, amlodipine, azelnidipine, efonidipine and manidipine, were accurately weighed respectively. Each agent was dissolved in DMSO. To the resulting solution was added 50% of the corresponding volume of PEG400 so that the final concentration of each agent was 1 mg/ml, and the final concentration of DMSO was 3%.
The compounds to be tested, Compound 18, Compound 21, Compound 22, Compound 23, and Compound 26, were accurately weighed respectively. Each compound was dissolved in DMSO. To the resulting solution was added 50% of the corresponding volume of PEG400 so that the final concentration of each compound was 1 mg/ml, and the final concentration of DMSO was 3%.
The compounds to be tested, Compound 19 and Compound 20, were accurately weighed respectively. Each compound was suspended in 0.5% MC so that the final concentration of each compound was 1 mg/ml.
The test for hypotensive effect: Male SHRs (spontaneous hypertensive rats) were randomly allocated into a control group and an administration group. The administration was an intragastric administration. One hour before the administration, the measured blood pressure was used as the pre-administration basic blood pressure value. After the administration, the contractive pressure, the heart rate and the mean arterial pressure of SHRs at six time points, i.e. 1, 2, 4, 6, 8 and 24 hours after the administration, were measured with a Softron BP-98A non-invasive blood pressure instrument respectively.

Chain of L-type calcium ion channels (O35505 whole entry): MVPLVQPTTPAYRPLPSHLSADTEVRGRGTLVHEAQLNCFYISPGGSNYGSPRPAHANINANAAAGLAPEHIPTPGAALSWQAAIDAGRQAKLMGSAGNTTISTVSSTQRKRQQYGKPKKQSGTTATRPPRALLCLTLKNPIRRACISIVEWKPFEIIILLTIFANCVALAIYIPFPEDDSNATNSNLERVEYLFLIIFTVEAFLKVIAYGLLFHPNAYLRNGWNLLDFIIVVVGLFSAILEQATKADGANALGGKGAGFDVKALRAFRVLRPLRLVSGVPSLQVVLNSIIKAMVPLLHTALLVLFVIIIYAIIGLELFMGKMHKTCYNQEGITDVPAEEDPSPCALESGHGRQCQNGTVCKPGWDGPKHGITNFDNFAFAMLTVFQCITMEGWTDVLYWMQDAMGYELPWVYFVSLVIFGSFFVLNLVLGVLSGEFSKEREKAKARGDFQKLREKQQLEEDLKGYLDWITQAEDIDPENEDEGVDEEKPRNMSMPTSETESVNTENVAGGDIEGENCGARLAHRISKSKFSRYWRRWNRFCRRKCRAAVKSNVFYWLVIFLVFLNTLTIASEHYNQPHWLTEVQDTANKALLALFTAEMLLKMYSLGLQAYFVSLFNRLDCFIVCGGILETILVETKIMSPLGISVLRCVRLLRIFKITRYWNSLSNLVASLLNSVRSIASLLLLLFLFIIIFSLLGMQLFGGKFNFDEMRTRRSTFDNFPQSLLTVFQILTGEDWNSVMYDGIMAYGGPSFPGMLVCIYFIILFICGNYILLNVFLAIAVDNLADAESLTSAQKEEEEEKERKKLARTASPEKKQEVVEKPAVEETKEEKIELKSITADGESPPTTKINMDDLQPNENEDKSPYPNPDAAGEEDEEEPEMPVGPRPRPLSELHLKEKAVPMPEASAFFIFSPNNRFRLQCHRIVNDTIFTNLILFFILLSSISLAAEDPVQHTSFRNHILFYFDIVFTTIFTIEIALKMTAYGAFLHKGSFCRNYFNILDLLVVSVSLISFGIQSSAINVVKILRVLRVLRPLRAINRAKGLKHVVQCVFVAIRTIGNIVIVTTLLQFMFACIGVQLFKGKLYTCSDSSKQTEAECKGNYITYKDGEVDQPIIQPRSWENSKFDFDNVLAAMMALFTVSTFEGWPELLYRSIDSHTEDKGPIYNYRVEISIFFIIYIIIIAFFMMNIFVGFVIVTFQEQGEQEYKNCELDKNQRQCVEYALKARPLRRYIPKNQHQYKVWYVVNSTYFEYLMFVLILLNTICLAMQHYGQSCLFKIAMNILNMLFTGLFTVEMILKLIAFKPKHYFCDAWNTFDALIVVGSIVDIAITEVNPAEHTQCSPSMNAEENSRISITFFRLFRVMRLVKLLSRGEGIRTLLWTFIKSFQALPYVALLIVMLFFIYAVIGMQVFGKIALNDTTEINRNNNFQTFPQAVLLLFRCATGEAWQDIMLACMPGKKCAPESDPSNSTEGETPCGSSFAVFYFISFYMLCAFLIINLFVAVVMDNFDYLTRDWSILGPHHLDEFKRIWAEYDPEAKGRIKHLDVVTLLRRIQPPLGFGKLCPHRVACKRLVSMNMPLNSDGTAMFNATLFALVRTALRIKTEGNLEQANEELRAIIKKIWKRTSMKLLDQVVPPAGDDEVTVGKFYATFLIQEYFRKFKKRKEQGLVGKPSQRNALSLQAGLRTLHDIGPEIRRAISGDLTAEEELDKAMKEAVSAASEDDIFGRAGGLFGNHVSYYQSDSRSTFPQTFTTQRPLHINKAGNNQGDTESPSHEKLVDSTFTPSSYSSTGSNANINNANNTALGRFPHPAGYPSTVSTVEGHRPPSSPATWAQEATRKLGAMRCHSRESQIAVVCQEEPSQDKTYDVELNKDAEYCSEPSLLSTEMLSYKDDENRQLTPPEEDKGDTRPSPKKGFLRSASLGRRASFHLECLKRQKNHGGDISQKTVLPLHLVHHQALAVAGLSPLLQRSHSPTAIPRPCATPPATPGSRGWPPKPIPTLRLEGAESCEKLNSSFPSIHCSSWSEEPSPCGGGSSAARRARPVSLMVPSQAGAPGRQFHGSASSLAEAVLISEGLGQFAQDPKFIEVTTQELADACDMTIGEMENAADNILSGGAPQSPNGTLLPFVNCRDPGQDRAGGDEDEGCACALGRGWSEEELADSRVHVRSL
Chain of Human Cav3.2 (O95180 whole entry): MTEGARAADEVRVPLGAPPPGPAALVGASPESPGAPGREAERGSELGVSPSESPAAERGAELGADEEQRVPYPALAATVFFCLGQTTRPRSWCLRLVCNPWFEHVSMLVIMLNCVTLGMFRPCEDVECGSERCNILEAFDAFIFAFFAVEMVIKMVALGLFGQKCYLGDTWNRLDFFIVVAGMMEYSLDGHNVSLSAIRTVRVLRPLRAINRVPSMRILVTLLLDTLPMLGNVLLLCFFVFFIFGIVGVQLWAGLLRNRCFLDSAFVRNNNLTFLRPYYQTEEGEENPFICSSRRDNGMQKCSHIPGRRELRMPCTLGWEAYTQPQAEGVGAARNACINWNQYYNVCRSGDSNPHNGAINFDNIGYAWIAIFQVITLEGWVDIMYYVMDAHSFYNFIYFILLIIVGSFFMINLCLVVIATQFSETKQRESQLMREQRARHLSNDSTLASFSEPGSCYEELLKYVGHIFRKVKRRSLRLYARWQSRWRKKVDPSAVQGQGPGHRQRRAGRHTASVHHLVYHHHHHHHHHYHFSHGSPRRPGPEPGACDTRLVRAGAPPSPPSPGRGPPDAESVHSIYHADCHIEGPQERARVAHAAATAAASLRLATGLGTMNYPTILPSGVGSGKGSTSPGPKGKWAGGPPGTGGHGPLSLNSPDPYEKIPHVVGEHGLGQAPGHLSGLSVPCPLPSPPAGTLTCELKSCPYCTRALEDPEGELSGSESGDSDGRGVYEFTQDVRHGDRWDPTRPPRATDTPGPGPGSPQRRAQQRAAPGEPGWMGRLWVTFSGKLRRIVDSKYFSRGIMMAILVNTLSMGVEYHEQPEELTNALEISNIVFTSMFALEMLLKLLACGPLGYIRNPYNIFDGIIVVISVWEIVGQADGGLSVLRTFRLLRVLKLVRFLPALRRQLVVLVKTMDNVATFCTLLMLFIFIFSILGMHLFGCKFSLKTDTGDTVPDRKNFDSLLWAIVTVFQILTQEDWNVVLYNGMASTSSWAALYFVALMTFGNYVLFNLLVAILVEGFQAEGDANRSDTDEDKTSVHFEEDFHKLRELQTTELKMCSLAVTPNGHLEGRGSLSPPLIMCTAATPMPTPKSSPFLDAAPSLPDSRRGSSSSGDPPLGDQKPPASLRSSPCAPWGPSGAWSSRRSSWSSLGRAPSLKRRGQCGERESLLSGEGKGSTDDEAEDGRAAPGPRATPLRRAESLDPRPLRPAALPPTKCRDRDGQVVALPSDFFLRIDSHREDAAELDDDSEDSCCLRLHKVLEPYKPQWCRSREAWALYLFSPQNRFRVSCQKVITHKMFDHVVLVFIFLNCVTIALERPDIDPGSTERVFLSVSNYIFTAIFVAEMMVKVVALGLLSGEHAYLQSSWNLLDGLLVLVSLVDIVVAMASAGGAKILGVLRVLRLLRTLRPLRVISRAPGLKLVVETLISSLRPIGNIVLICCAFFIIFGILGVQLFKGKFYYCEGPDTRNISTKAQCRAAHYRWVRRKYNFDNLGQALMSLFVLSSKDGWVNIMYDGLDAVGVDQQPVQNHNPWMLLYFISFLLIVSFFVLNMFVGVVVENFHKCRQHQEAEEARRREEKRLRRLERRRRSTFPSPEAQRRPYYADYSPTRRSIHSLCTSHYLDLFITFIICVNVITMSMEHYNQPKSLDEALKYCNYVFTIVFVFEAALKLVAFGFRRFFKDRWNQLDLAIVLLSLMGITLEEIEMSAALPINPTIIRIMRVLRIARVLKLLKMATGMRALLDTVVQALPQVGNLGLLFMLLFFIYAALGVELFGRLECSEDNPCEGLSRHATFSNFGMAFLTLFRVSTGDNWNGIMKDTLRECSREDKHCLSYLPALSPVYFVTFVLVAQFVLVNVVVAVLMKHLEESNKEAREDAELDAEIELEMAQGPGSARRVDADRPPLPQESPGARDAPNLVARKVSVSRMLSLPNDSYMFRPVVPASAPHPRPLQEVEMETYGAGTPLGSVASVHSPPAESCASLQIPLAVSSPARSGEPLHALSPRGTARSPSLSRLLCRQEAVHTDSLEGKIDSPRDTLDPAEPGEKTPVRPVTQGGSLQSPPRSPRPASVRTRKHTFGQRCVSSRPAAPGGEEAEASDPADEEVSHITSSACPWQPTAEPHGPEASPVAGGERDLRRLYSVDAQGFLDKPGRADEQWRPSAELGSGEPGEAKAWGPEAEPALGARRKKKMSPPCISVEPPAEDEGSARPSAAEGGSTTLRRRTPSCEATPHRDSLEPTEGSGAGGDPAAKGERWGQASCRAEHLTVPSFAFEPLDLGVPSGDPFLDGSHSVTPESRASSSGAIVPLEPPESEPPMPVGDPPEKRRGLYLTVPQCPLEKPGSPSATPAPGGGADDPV

Structure (SMILES) | IC50 [1] | IC50 (Human Cav3.2) | IC50 [2] | Max ΔMAP (mmHg ± SEM) (SHRs) | ΔMAP > 20 (mmHg) Duration time of action (SHRs) | ΔMAP > 20 (mmHg) Duration time of action [3] | Max ΔMAP (mmHg ± SEM) [3]
COC(=O)C1=C(C)NC(C)=C(C(=O)OC2(C)CCN(Cc3ccccc3)C2)C1c1cccc([N+](=O)[O-])c1 (stereo not drawn) [Compound 1 hydrochloride, 3-(1-benzyl-3-methylpyrrolidin-3-yl) 5-methyl 2,6-dimethyl-4-(3-nitrophenyl)-1,4-dihydropyridine-3,5-dicarboxylate] | 4.47 µM |  |  |  |  |  | 
COC(=O)C1=C(C)NC(C)=C(C(=O)OC2(C)CCN(CCC(c3ccccc3)c3ccccc3)C2)C1c1cccc([N+](=O)[O-])c1 (stereo not drawn) [Compound 2 hydrochloride, 3-[1-(3,3-diphenylpropyl)-3-methylpyrrolidin-3-yl]5-methyl 2,6-dimethyl-4-(3-nitrophenyl)-1,4-dihydropyridine-3,5-dicarboxylate] | 3.2 µM |  |  |  |  |  | 
COC(=O)C1=C(C)NC(C)=C(C(=O)O[C@@]2(C)CCN(CCC(c3ccccc3)c3ccccc3)C2)[C@H]1c1cccc([N+](=O)[O-])c1 [Compound 16, (S)-3-[(S)-1-(3,3-diphenylpropyl)-3-methylpyrrolidin-3-yl] 5-methyl 2,6-dimethyl-4-(3-nitrophenyl)-1,4-dihydropyridine-3,5-dicarboxylate] | 2.28 µM | 1.95 µM | 0.59 µM | 57 ± 5 mmHg | 11 h |  | 
COC(=O)C1=C(C)NC(C)=C(C(=O)O[C@]2(C)CCN(CCC(c3ccccc3)c3ccccc3)C2)[C@H]1c1cccc([N+](=O)[O-])c1 [Compound 17, (S)-3-[(R)-1-(3,3-diphenylpropyl)-3-methylpyrrolidin-3-yl] 5-methyl 2,6-dimethyl-4-(3-nitrophenyl)-1,4-dihydropyridine-3,5-dicarboxylate] |  | 9.41 µM | 0.93 µM | 57 ± 5 mmHg | 16 h |  | 
CCOC(=O)C1=C(COCCN)NC(C)=C(C(=O)OC)C1c1ccccc1Cl (stereo not drawn) [amlodipine, reference compound] |  | > 100 µM | 1.11 µM | 48 ± 13 mmHg | 16 h | 24 h | 74 ± 8 mmHg
COC(=O)C1=C(C)NC(C)=C(C(=O)O[C@H]2CCN(Cc3ccccc3)C2)[C@H]1c1cccc([N+](=O)[O-])c1 [barnidipine, reference compound] | 8.15 µM | 30.8 µM | 0.58 µM | 60 ± 6 mmHg | 9 h | 14 h | 81 ± 10 mmHg
COC(=O)C1=C(C)NC(C)=C(C(=O)OC(C)(C)CN(C)CCC(c2ccccc2)c2ccccc2)C1c1cccc([N+](=O)[O-])c1 (stereo not drawn) [lercanidipine, reference compound] | > 10 µM |  | 0.84 µM | 54 ± 7 mmHg | 14 h | 23 h | 77 ± 15 mmHg
